Four compounds from ChEMBL document CHEMBL1158814, “Lehualides A-D, metabolites from a Hawaiian sponge of the genus Plakortis” (J Nat Prod, 2005) can be followed below.

Structures are written as SMILES. ≈ marks a conversion by molar mass, not a printed value.

Data set [1] in a line: Toxicity against brine shrimp. It counts as organism-based. Conditions: artemia, in vivo; read-out: LD50 (the source's name).
Data set [2] can be described thus: Cytotoxicity against human IGROV-ET cells. Type of data set: functional.
Data set [3] deals with K562. Kind of data set: Cytotoxicity against human K562 cells. Type of data set: functional.

As to `COc1c(O)c(C)c(C/C=C(\C)CC/C=C(/C)C/C(C)=C/Cc2ccccc2)oc1=O` [LEHUALIDE A], the LC50 in data set [1] is 50 µg/mL (≈ 118 µM). As usually defined, the GI50 is the concentration giving 50% growth inhibition. Higher therefore signals less potent growth inhibition. Consider `COc1oc(C/C=C(\C)CC/C=C(/C)C/C(C)=C/Cc2ccccc2)c(C)c(=O)c1OC` [LEHUALIDE B], for which it took 0.83 µM to inhibit growth in data set [2] by half (GI50). For the same compound, the LC50 in data set [1] worked out at 15 µg/mL (≈ 34.4 µM). As to `COc1oc(C/C=C(\C)CCCCCCCCCSC(C)=O)c(C)c(=O)c1OC` [LEHUALIDE C], the LC50 in data set [1] stood at 15 µg/mL (≈ 35.3 µM). For the compound `COc1oc(C/C=C(\C)CCCCCCCCCS)c(C)c(=O)c1OC` [LEHUALIDE D], the GI50 was determined as 0.23 µM in data set [3] and 0.73 µM in data set [2]. The LC50 in data set [1] was found to be 15 µg/mL (≈ 39.2 µM).
